Structures can show the parent of a compound that is named as a salt.
What follows are compounds tested on Histone H3 Citrullination in Neutrophils (assay: Citrullination ELISA (Citrullinated Histone H3) in calcium ionophore stimulated neutrophils). Conditions: Neutrophil; human neutrophils, 25 μM calcium ionophore, CitH3 ELISA.
Format: cell-based
Procedure: Neutrophils were isolated according to the EasySep Direct Human Neutrophil Isolation Kit. In short, 50 mL of blood sample was drawn in a vacutainer containing K2EDTA from a healthy donor. To the whole blood, the isolation cocktail of 50 μL/mL was added. Then, in the next step 50 μL/mL of RapidSpheres™ was added to the sample. The sample was mixed evenly with the pipette and incubated for 10 minutes at room temperature. After incubation, PBS containing 1 mM EDTA was added at the ratio of 1:1 to the blood. Then the sample tube was incubated for 10 minutes. The enriched cell suspension was transferred into a new tube and RapidSpheres™ were added at 50 μL/mL to this suspension, mixed and incubated for 10 minutes at room temperature. At this step, the enriched cell suspension was carefully collected as a clear fraction into a fresh tube. Then, previous tube was replaced with the fresh tube containing enriched cell suspension. After the final separation, the clear solution of enriched cell suspension was carefully transferred to fresh tube which was ready to use for the experiment. These cells were then subjected to wash twice with plain RPMI 1640 media without Fetal Bovine Serum (FBS) and centrifuged at 1500 rpm for 5 minutes at room temperature. Cell counts were performed on each sample by Invitrogen cell counter. After the cell count, cell density was adjusted according to the experiment and re-suspended in complete RPMI media containing RPMI1640, 2% BSA and 1 mM CaCl2.
Freshly isolated neutrophils from human donor were seeded at a density of 0.5×10^6 cells in 400 μL cell suspension/well in a 24-well plate and cells were pre-incubated with the compound for 30 minutes by adding 50 μL of the 10× concentration to achieve the final 1× concentration of compound (10 μM, 1 μM and 0.1 μM). 1% DMSO was added in control wells. Then, the cells were stimulated in the presence and absence of calcium ionophore by adding 50 μL/well to achieve the final concentration of 25 μM. Upon incubation for 30 minutes with calcium ionophore, S7 nuclease was added to the wells and incubated for 10 minutes to disrupt NET DNA. Following incubation, 10 μL of 1 mM EDTA was added to inactivate nuclease. Cells were scrapped gently and transferred to the tubes, followed by centrifugation at 1500 rpm for 5 minutes. After centrifugation, supernatant was discarded, and 200 μL of lysis buffer containing PBS and 1× Protease inhibitor was added to the tubes. The obtained lysis was then subjected to mechanical shearing using Geno grinder by spin the plate at 2500 rpm for 10 minutes, followed by collection of supernatant and stored at −20° C. or immediately used for ELISA.
ELISA was performed as per Citrullinated Histone H3 ELISA Kit. All the buffer components from the kit were dissolved according to the manufactures protocol. ELISA Buffer Concentrate (10×) (Item No. 400060) and Wash Buffer Concentrate (400×) (Item No. 400060) along with polysorbate 20 (2000×) (Item No. 400035) was diluted to 1× with milliQ water. The standard for use in the ELISA was prepared as follows: • Obtain eight clean test tubes and label them, #1 through #8. Aliquot 4.9 mL of ELISA Buffer into tube #1. • Aliquot 500 μL of ELISA Buffer into the tubes #2-8. […] This tube is considered as blank, the lowest point on the standard curve.
100 μL of standards or diluted sample was added to the appropriate wells on the 96-well plate. Plates were covered with 96-well cover sheet and incubated for two hours at room temperature on an orbital shaker. The samples and standard were removed from the wells and washed four times with Wash Buffer. After the last wash, Anti-Histone H3 HRP Conjugate (Item No. 501441) (10×) stock solution was diluted in 1×ELISA buffer and 100 μL of the HRP Conjugate working solution was added to each well of the plate and incubated for one hour at room temperature on an orbital shaker. […]

Compound	IC50
Cc1c(-c2cc3ccccc3n2CC2CCC2)nc2cc(C(=O)N3CCC[C@@H](N)C3)ccn12 [Compound 61, (R)-(3-aminopiperidin-1-yl)(2-(1-(cyclobutylmethyl)-1H-indol-2-yl)-3-methylimidazo[1,2-a]pyridin-7-yl)methanone]	> 1 µM
Cc1c(-c2cc3ccccc3n2Cc2ncccc2F)nc2cc(C(=O)N3CCC[C@@H](N)C3)ccn12 [Compound 62, (R)-(3-aminopiperidin-1-yl)(2-(1-((3-fluoropyridin-2-yl)methyl)-1H-indol-2-yl)-3-methylimidazo[1,2-a]pyridin-7-yl)methanone]	0.1 to 1 µM
Cc1c(-c2cc3ccc(F)cc3n2Cc2cccnc2)nc2cc(C(=O)N3CCC[C@@H](N)C3)ccn12 [Compound 69, (R)-(3-aminopiperidin-1-yl)(2-(6-fluoro-1-(pyridin-3-ylmethyl)-1H-indol-2-yl)-3-methylimidazo[1,2-a]pyridin-7-yl)methanone]	0.1 to 1 µM
Cc1c(-c2cc3cc(F)ccc3n2Cc2ccncc2)nc2cc(C(=O)N3CCC[C@@H](N)C3)ccn12 [Compound 74, (R)-(3-aminopiperidin-1-yl)(2-(5-fluoro-1-(pyridin-4-ylmethyl)-1H-indol-2-yl)-3-methylimidazo[1,2-a]pyridin-7-yl)methanone]	> 1 µM
Cc1c(-c2cc3cc(F)ccc3n2Cc2ccc(F)cc2)nc2cc(C(=O)N3CCC[C@@H](N)C3)ccn12 [Compound 76, (R)-(3-aminopiperidin-1-yl)(2-(5-fluoro-1-(4-fluorobenzyl)-1H-indol-2-yl)-3-methylimidazo[1,2-a]pyridin-7-yl)methanone]	> 1 µM
Cc1c(-c2cc3ccccc3n2CC(F)F)nc2cc(C(=O)N3CCC[C@@H](N)C3)ccn12 [Compound 78, (R)-(3-aminopiperidin-1-yl)(2-(1-(2,2-difluoroethyl)-1H-indol-2-yl)-3-methylimidazo[1,2-a]pyridin-7-yl)methanone trifluoroacetic acid salt]	> 1 µM
Cc1c(-c2cc3ccccc3n2Cc2ccc(F)cn2)nc2cc(C(=O)N3CCC[C@@H](N)C3)ccn12 [Compound 79, (R)-(3-aminopiperidin-1-yl)(2-(1-((5-fluoropyridin-2-yl)methyl)-1H-indol-2-yl)-3-methylimidazo[1,2-a]pyridin-7-yl)methanone]	> 1 µM
COc1ccc2cc(-c3nc4cc(C(=O)N5CCC[C@@H](N)C5)ccn4c3C)n(Cc3ccc(F)cc3)c2c1 [Compound 80, (R)-(3-aminopiperidin-1-yl)(2-(1-(4-fluorobenzyl)-6-methoxy-1H-indol-2-yl)-3-methylimidazo[1,2-a]pyridin-7-yl)methanone]	> 1 µM
N[C@@H]1CCCN(C(=O)c2cc3c4c(c2)nc(-c2cc5ccccc5n2CC2CC2)n4CCO3)C1 [Compound 87, (R)-(3-aminopiperidin-1-yl)(2-(1-(cyclopropylmethyl)-1H-indol-2-yl)-3,4-dihydro-5-oxa-1,2a-diazaacenaphthylen-7-yl)methanone]	0.1 to 1 µM
N[C@@H]1CCCN(C(=O)c2cc3c4c(c2)nc(-c2cc5ccccc5n2Cc2ccccn2)n4CCO3)C1 [Compound 97, (R)-(3-aminopiperidin-1-yl)(2-(1-(pyridin-2-ylmethyl)-1H-indol-2-yl)-3,4-dihydro-5-oxa-1,2a-diazaacenaphthylen-7-yl)methanone]	0.1 to 1 µM
N[C@@H]1CCCN(C(=O)c2cc3c4c(c2)nc(-c2cc5ccccc5n2Cc2ccccc2F)n4CCO3)C1 [Compound 100, (R)-(3-aminopiperidin-1-yl)(2-(1-(2-fluorobenzyl)-1H-indol-2-yl)-3,4-dihydro-5-oxa-1,2a-diazaacenaphthylen-7-yl)methanone]	< 0.1 µM
COc1cc2cc(-c3nc4cc(C(=O)N5CCC[C@@H](N)C5)cc5c4n3CCO5)n(CC3CC3)c2cc1OC [Compound 103, (R)-(3-aminopiperidin-1-yl)(2-(1-(cyclopropylmethyl)-5,6-dimethoxy-1H-indol-2-yl)-3,4-dihydro-5-oxa-1,2a-diazaacenaphthylen-7-yl)methanone]	< 0.1 µM

Results, then the compound that gave them:

IC50	Compound
> 1 µM	CCn1c(-c2nc3cc(C(=O)N4CCC[C@@H](N)C4)ccn3c2C)cc2ccc(OC)cc21 [Compound 67, (R)-(3-aminopiperidin-1-yl)(2-(1-ethyl-6-methoxy-1H-indol-2-yl)-3-methylimidazo[1,2-a]pyridin-7-yl)methanone]
< 0.1 µM	Cc1c(-c2cc3ccc(F)cc3n2Cc2ccncc2)nc2cc(C(=O)N3CCC[C@@H](N)C3)ccn12 [Compound 68, (R)-(3-aminopiperidin-1-yl)(2-(6-fluoro-1-(pyridin-4-ylmethyl)-1H-indol-2-yl)-3-methylimidazo[1,2-a]pyridin-7-yl)methanone]
< 0.1 µM	COc1cccc(Cn2c(-c3nc4cc(C(=O)N5CCC[C@@H](N)C5)ccn4c3C)cc3ccc(F)cc32)c1 [Compound 70, (R)-(3-aminopiperidin-1-yl)(2-(6-fluoro-1-(3-methoxybenzyl)-1H-indol-2-yl)-3-methylimidazo[1,2-a]pyridin-7-yl)methanone]
> 1 µM	COc1ccc(Cn2c(-c3nc4cc(C(=O)N5CCC[C@@H](N)C5)ccn4c3C)cc3ccc(F)cc32)cc1 [Compound 71, (R)-(3-aminopiperidin-1-yl)(2-(6-fluoro-1-(4-methoxybenzyl)-1H-indol-2-yl)-3-methylimidazo[1,2-a]pyridin-7-yl)methanone]
0.1 to 1 µM	CCn1c(-c2nc3cc(C(=O)N4CCC[C@@H](N)C4)ccn3c2C)cc2ccc(F)cc21 [Compound 72, (R)-(3-aminopiperidin-1-yl)(2-(1-ethyl-6-fluoro-1H-indol-2-yl)-3-methylimidazo[1,2-a]pyridin-7-yl)methanone]
0.1 to 1 µM	COc1ccc(Cn2c(-c3nc4cc(C(=O)N5CCC[C@@H](N)C5)ccn4c3C)cc3cc(F)ccc32)cc1 [Compound 75, (R)-(3-aminopiperidin-1-yl)(2-(5-fluoro-1-(4-methoxybenzyl)-1H-indol-2-yl)-3-methylimidazo[1,2-a]pyridin-7-yl)methanone]
> 1 µM	Cc1c(-c2cc3ccccc3n2Cc2ccc(CO)cc2)nc2cc(C(=O)N3CCC[C@@H](N)C3)ccn12 [Compound 81, (R)-(3-aminopiperidin-1-yl)(2-(1-(4-(hydroxymethyl)benzyl)-1H-indol-2-yl)-3-methylimidazo[1,2-a]pyridin-7-yl)methanone]
< 0.1 µM	N[C@@H]1CCCN(C(=O)c2cc3c4c(c2)nc(-c2cc5cc(F)ccc5n2CC2CC2)n4CCO3)C1 [Compound 95, (R)-(3-aminopiperidin-1-yl)(2-(1-(cyclopropylmethyl)-5-fluoro-1H-indol-2-yl)-3,4-dihydro-5-oxa-1,2a-diazaacenaphthylen-7-yl)methanone]
0.1 to 1 µM	N[C@@H]1CCCN(C(=O)c2cc3c4c(c2)nc(-c2cc5ccccc5n2Cc2ccc(Cl)cc2)n4CCO3)C1 [Compound 99, (R)-(3-aminopiperidin-1-yl)(2-(1-(4-chlorobenzyl)-1H-indol-2-yl)-3,4-dihydro-5-oxa-1,2a-diazaacenaphthylen-7-yl)methanone]
< 0.1 µM	N[C@@H]1CCCN(C(=O)c2cc3c4c(c2)nc(-c2cc5ccccc5n2Cc2cccnc2)n4CCO3)C1 [Compound 102, (R)-(3-aminopiperidin-1-yl)(2-(1-(pyridin-3-ylmethyl)-1H-indol-2-yl)-3,4-dihydro-5-oxa-1,2a-diazaacenaphthylen-7-yl)methanone]
0.1 to 1 µM	N[C@@H]1CCCN(C(=O)c2cc3c4c(c2)nc(-c2cc5ccccc5n2Cc2ccccc2)n4CCO3)C1 [Compound 104, (R)-(3-aminopiperidin-1-yl)(2-(1-benzyl-1H-indol-2-yl)-3,4-dihydro-5-oxa-1,2a-diazaacenaphthylen-7-yl)methanone]

From patent US20220047569A1, “METHOD AND COMPOUND FOR USE, IN TREATING AND/OR PREVENTING NETOSIS” (Jubilant EpiPad LLC, priority 2020, published 2022)
